According to patent publication US7396910B2, “Transient receptor potential channel TRPV3 and its use” (IRM LLC, priority 2001, dated 2008):
Entries after “also recorded” stand apart in the source; their conditions may differ. Blank lines part the entries; values can stand above or below the molecule they belong to.

Tests used:
mouse TRPM8 [1] = biological target: T1, mouse TRPM8 (Mus musculus, UniProt Q8R4D5); test: Fura-2 calcium imaging of TRPM8-expressing CHO cells; assay type: cell-based
T1 construct: expressed in transfected cells
From the text: Given the similarity of TRPM8 protein to TRPV family members and its unique expression pattern, the effects of heat, capsaicin, cold and menthol in mediating calcium influx are examined using transfected CHO-K1/FRT cells expressing TRPM8 protein and a fluorescent calcium imaging method as described in detail below.
To generate mouse TRPM8-expressing CHO cell lines, mouse TRPM8 cDNA are subcloned in pcDNA5 (Invitrogen), transfected into CHO-K1/FRT cells using Fugene 6 (Roche). The transfected cells are selected by growth in MEM medium containing […] hygromycin (Gibco BRL). Populations are frozen at early passage numbers and these stocks are used for further studies. Stable clones that express the mRNAs are identified by Northern blot analysis as well as Southern blotting to confirm integration site (not shown).
Calcium imaging experiments are performed essentially as previously described (see Savidge et al., Neuroscience, 102:177-184 (2001)). Briefly, cells are plated on glass coverslips and loaded with Fura-2 acetoxymethyl ester ([…]) and incubated for 30-60 minutes at room temperature in […] of pluronic acid (Molecular Probes, Eugene, Oreg.) in a HEPES-buffered saline (2 mM Ca 2+). Coverslips are placed in a laminar flow perfusion chamber (Warner Instrument Corp.) and constantly perfused with HEPES-buffered saline (2 mM Ca^2+) via a local perfusion pipette through which buffer and chilled solutions are also applied. Chilled stimulations consist of a linear decrease (˜1-1.5° C. sec^−1) in perfusate temperature from 33° C. to 10° C. Perfusate temperature is controlled by a regulated Peltier device and is monitored in the cell chamber by a miniature thermocouple. Alternatively, cells are plated on 24-well tissue culture plates, loaded with Fura-2 and application of solutions is performed with a 3 cc syringe over a period of 10 seconds. Images of Fura-2 loaded cells with the excitation wavelength alternating between […] are captured with a cooled CCD camera. Following subtraction of background fluorescence, the ratio of fluorescence intensity at the two wavelengths is calculated. Ratio levels in groups of 20-40 individual cells are analyzed using MetaFluor (Universal Imaging Corporation). All graphs are averaged responses from groups of 20-30 individual cells from representative single experiments. […] Hanks balanced salt solution (HBSS), phosphate buffered saline (PBS) and all cell culture reagents are obtained from Gibco BRL. Ruthenium red, capsaicin and menthol are obtained from Sigma.

Mouse TRPV3 = biological target: T2, Mouse TRPV3 (Mus musculus, UniProt Q8K424, A9V); test: Whole-cell voltage clamp of TRPV3-expressing CHO cells (heat-evoked currents); assay type: cell-based
T2 construct: expressed in transfected cells
T2 sequence (Q8K424 1-791 A9V): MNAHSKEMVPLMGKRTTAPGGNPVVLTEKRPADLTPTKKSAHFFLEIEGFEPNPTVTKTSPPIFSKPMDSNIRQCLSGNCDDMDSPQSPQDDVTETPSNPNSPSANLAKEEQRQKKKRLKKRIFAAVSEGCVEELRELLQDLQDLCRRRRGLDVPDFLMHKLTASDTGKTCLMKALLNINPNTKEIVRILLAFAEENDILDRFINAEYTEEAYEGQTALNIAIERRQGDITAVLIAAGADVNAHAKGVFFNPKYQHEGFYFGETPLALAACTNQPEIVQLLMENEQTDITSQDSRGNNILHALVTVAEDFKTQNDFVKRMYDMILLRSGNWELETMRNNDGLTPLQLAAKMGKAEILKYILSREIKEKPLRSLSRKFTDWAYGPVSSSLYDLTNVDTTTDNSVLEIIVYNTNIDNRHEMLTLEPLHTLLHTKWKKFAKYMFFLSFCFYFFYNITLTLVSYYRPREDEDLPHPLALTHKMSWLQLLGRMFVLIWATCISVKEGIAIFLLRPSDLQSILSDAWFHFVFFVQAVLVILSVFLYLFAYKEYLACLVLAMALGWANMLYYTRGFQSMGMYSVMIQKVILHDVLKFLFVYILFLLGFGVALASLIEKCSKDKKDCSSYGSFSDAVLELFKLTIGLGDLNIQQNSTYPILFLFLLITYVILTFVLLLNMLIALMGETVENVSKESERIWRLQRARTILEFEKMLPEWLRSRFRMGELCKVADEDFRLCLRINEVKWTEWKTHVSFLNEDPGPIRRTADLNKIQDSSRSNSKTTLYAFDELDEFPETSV
Protocol: Given the high degree of homology of TRPV3 to TRPV family members, TRPV3 is tested to determine whether it responds to stimuli known to activate other closely-related family members. Accordingly, the effects of heat upon TRPV3 activity in mediating conductance are examined using whole-cell patch-clamp analysis of transfected CHO cell lines expressing TRPV3.
Mouse TRPV3 and rat TRPV1 cDNA are subcloned into pcDNA5 (Invitrogen) and transfected into CHO-K1/FRT cells using Fugene 6 (Roche). The transfected cells are selected by growth in MEM medium containing 200 μg/mL hygromycin (Gibco BRL). Populations are frozen at early passages and these stocks are used for further studies. Stable clones that express the mRNAs are identified by Northern blot analysis as well as Southern blotting to confirm integration site. Long-term cultures are subsequently maintained at 33° C.
TRPV3 expressing CHO cells are assayed electrophysiologically using whole cell voltage clamped techniques. Currents are recorded via pCLAMP8 suite of software via an Axopatch 200A and filtered at 5 kHz. Series-resistance compensation for all experiments is 80% using 2-5 MΩ resistance, fire-polished pipettes. Unless stated, the holding potential for most experiments is −60 mV, apart from the current-voltage relationship studies (2 second ramp from −100 to +80 mV). Cells are normally bathed in a medium containing (mM): NaCl, 140; KCl, 5; Glucose; 10, HEPES, 10; CaCl2, 2; MgCl2 1; titrated to pH 7.4 with NaOH, apart from the monovalent permeability studies, when NaCl is replaced by equimolar KCl or CsCl with the omission of KCl, 5 mM. For the divalent permeability studies, the solutions either contain 1 mM Ca^2+ or Mg^2+ and (mM) NaCl, 100; Glucose, 10; Hepes, 10; sucrose, 80 or 30 mM test ion, in the above solution minus sucrose. The experiments in calcium free media have no added CaCl2 with the addition of 100 μM EGTA. Pipette solution is always (mM) CsCl, 140; CaCl2, 1; EGTA, 10; HEPES, 10; MgATP, 2; titrated to pH7.4 with CsOH. For the permeability, ratios for the monovalent cations relative to Na (PX/PNa) are calculated as follows: PX/PNa=Eshift={RT/F}log(PX/PNa[X]O/[Na]O)

mouse TRPM8 [2] = biological target: T1, mouse TRPM8; test: Whole-cell voltage clamp of TRPM8-expressing CHO cells; assay type: cell-based
Protocol: To investigate the membrane responses to cold and menthol, voltage clamp experiments are carried out on TRPM8 expressing cells which are prepared as described above.
Cells are plated onto poly-D-lysine coated cover-slips for recording purposes and recordings undertaken 18-24 hours later. Experiments are carried out at room temperature using whole-cell voltage clamp technique, with an Axopatch 2B amplifier, filtered at 5 kHz and pClamp suite of software (Axon Instruments). Series resistant compensation is 80% for all experiments, using 2-5 MΩ fire-polished pipettes. Recording solutions are as follows; pipette solution for all experiments is (mM) CsCl, 140; CaCl2, 1; EGTA, 10; HEPES, 10; MgATP, 2; titrated to pH 7.4 with CsOH. For menthol and cold activated currents the bath solution is (mM): NaCl, 140; KCl, 5; Glucose; 10, HEPES, 10; CaCl2, 2; MgCl2, 1; titrated to pH 7.4 with NaOH. Current-voltage relationships are used to evaluate reversal potentials with voltage ramps from −100 to +60 mV (2 second duration). For the permeability studies for the monovalent ions the NaCl in a simplified bath solution (mM): NaCl, 140; Glucose; 10, HEPES, 10; CaCl2, 2; MgCl2, 1, is substituted by either equimolar CsCl or KCl (titrated with CsOH or KOH). For calcium permeability estimates, the bath solutions contains (mM) NaCl, 100; Glucose, 10 mM; Hepes, 10 mM (titrated with NaOH) plus 1 or 30 mM CaCl2. Osmolarity of solutions are adjusted by addition of sucrose. Permeability ratios for the monovalent cations to Na (PX/PNa) are calculated as follows: PX/PNa=Eshift={RT/F}log(PX/PNa[X]O/[Na]O)
where B′=P′Ca/PNa and P′Ca=PCa/(1+e^EF/RT) and [Ca]O(1) and [Ca]O(2) refer to the two different calcium concentrations. Local perfusion of menthol is via a TC^2bip temperature controller. A Marlow temperature controller is used for the cooling ramps.

[3] = system: Non-transfected CHO cells; test: Fura-2 calcium imaging of non-transfected CHO cells (control cells); assay type: cell-based, Chinese Hamster; conditions: tested up to 1 mM
[4] = system: Non-transfected CHO cells; test: Whole-cell voltage clamp of non-transfected CHO cells (control cells); assay type: cell-based, Chinese Hamster; conditions: temperatures >23° C.
Protocol: To investigate the membrane responses to cold and menthol, voltage clamp experiments are carried out on TRPM8 expressing cells which are prepared as described above. Cells are plated onto poly-D-lysine coated cover-slips for recording purposes and recordings undertaken 18-24 hours later. […] Series resistant compensation is 80% for all experiments, using 2-5 MΩ fire-polished pipettes. Recording solutions are as follows; pipette solution for all experiments is (mM) CsCl, 140; […] EGTA, 10; HEPES, 10; […] For menthol and cold activated currents the bath solution is (mM): NaCl, 140; KCl, 5; Glucose; 10, HEPES, 10; […] Current-voltage relationships are used to evaluate reversal potentials with voltage ramps from -100 to +60 mV (2 second duration). For the permeability studies for the monovalent ions the NaCl in a simplified bath solution (mM): NaCl, 140; Glucose; 10, HEPES, 10; […] MgCl2, 1, is substituted by either equimolar CsCl or KCl (titrated with CsOH or KOH). For calcium permeability estimates, the bath solutions contains (mM) NaCl, 100; Glucose, 10 mM; Hepes, 10 mM (titrated with NaOH) plus 1 or 30 mM CaCl2. Osmolarity of solutions are adjusted by addition of sucrose. Permeability ratios for the monovalent cations to Na (PX/PNa) are calculated as follows: […]={[…])

T1 sequence (Q8R4D5 whole entry): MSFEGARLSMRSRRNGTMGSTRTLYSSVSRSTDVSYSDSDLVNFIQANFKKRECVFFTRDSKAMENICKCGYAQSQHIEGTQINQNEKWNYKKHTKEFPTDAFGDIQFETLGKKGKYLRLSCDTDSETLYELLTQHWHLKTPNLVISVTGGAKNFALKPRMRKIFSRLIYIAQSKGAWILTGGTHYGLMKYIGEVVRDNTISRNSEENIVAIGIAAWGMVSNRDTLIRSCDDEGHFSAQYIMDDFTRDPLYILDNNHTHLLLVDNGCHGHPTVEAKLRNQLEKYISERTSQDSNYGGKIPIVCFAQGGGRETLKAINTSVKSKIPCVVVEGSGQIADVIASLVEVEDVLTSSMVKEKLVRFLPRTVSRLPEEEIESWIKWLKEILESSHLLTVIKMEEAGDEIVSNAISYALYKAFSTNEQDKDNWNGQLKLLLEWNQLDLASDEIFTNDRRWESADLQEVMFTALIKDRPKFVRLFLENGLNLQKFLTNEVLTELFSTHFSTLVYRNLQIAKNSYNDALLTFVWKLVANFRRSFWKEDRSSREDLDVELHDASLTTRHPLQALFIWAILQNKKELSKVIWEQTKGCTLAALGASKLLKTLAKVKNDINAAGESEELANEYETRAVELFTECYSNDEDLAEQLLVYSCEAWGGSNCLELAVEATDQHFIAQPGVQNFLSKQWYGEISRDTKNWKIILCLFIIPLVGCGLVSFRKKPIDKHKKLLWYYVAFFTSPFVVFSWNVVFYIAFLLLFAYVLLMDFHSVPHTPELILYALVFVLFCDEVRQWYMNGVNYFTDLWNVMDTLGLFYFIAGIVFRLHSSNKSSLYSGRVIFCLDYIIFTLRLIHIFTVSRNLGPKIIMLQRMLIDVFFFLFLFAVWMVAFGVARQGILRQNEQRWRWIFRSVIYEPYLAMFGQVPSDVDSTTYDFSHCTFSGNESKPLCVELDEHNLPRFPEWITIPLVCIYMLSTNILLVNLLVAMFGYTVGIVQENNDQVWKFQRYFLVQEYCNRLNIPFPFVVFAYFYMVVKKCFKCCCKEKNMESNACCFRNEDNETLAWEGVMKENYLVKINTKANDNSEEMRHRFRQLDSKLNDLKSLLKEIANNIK

intracellular calcium response evoked in TRPM8 expressing cells (mouse TRPM8 [1]; 10 μM): does not evoke a response | current response evoked in TRPV3-expressing cells (Mouse TRPV3; 1 μM, whole cell voltage clamp): does not evoke a response
SMILES: COc1cc(CNC(=O)CCCC/C=C/C(C)C)ccc1O [Capsaicin, capsaicin]

SMILES: Oc1cc2c(cc1O)CN(C(=S)NCCc1ccc(Cl)cc1)CCC2 [capsazepine]
amplitude of test heat-evoked current relative to the preceding response (Mouse TRPV3; 10 μM applied for 2 minutes prior to the test heat challenge, after 4-5 sensitizing heat steps, no-antagonist control 1.57±0.25): 2.31±0.36 times the amplitude of the preceding response

SMILES: CC1CCC(C(C)C)C(O)C1 (stereo not shown) [menthol]
inward currents evoked in TRPM8-expressing CHO cells (FIG. 10A) (mouse TRPM8 [2]; 1 mM, Vh=−60 mV, 25° C.): Inward currents evoked | concentration-response relationship of evoked currents at 22° C. versus 35° C. (mouse TRPM8 [2]; +60 mV, 0.1, 0.5, 1 and 10 mM): shifted to the left at the lower temperature | Erev of the menthol activated current (mouse TRPM8 [2]; CsCl pipette, NaCl-based bath solution, n=12): −9.28±0.75 mV | currents evoked in TRPM8 expressing cells (mouse TRPM8 [2]; temperatures above the threshold for cold activation (>23° C.)): evokes rapidly activating currents | calcium response of non-transfected CHO cells [3]: completely insensitive; also recorded: no increase in [Ca^2+]i | currents evoked in non-transfected CHO cells [4]: not in non-transfected CHO cells | calcium response of TRPM8 expressing cells upon lowering the temperature to 30° C. (mouse TRPM8 [1]; 30° C., 10 μM (FIG. 7E)): intracellular calcium levels increases; also recorded: marked increase in intracellular Ca^2+ | calcium response of TRPM8 expressing cells at 33° C. (mouse TRPM8 [1]; 33° C., 10 μM (FIG. 7E)): does not induce a calcium response; also recorded: does not elicit an influx of Ca^2+ | intracellular calcium (Fura-2 fluorescence) response of TRPM8 cells (mouse TRPM8 [1]; cells incubated at 25° C., 10 and 100 μM): increases significantly; also recorded: responds to menthol | desensitization of TRPM8-expressing cells on repeated applications (mouse TRPM8 [1]; repeated applications (FIG. 7E)): do not appear to desensitize

SMILES: N.N.N.N.N.N.N.N.N.N.N.N.N.N.[Cl-].[Cl-].[Cl-].[Cl-].[Cl-].[Cl-].[O-2].[O-2].[Ru+3].[Ru+3].[Ru+4] [ruthenium red]
suppression of the temperature (cold) calcium response of TRPM8 expressing cells (mouse TRPM8 [1]; 5 μM): does not suppress the temperature response | relative amplitude of the heat response (test heat-evoked current relative to the preceding response) (Mouse TRPV3; 1 μM applied for 2 minutes prior to the test heat challenge, after 4-5 sensitizing heat steps, no-antagonist control 1.57±0.25): 0.34±0.03 | effect on sensitization and heat response of TRPV3 (FIG. 4D) (Mouse TRPV3; 1 μM, repeated heat steps): attenuates the sensitization and inhibits the heat response
